Measured values taken from ChEMBL document CHEMBL5303763, “Data for DCP probe BI-3802” (2023).

How the values were obtained:
[1] = molecular target: D(1A) dopamine receptor (Homo sapiens) (UniProt P21728); assay: D1/H Eurofins SafetyScreen44 (BI); settings: filed as antagonist, Compound concentration 10.0 uM
[2] = molecular target: Alpha-1A adrenergic receptor (Homo sapiens) (UniProt P35348); assay: ALPHA1AH_ANTAG Eurofins SafetyScreen44 (BI); settings: filed as antagonist, Compound concentration 10.0 uM
Chain of Alpha-1A adrenergic receptor (Homo sapiens) (P35348 whole entry): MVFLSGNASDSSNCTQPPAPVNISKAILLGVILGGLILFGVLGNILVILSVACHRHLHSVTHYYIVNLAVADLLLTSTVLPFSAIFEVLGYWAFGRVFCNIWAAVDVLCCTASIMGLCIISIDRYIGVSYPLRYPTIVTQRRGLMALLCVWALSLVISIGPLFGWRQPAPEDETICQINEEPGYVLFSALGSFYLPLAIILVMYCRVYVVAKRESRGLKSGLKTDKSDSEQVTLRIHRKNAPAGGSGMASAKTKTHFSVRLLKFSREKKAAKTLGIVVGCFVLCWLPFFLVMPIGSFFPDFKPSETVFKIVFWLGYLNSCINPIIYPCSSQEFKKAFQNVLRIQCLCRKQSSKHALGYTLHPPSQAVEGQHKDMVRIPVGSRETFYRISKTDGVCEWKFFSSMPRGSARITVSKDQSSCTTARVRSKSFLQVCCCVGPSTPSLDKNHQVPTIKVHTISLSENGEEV

[3] = molecular target: hERG (KCNH2) (Homo sapiens, UniProt Q12809); assay: HERG_DOFETILIDE Eurofins SafetyScreen44 (BI); settings: probe [3H] Dofetilide, compound concentration 10 uM, read-out: % Ctrl
[4] = molecular target: T1, GABA-A receptor; anion channel (Rattus norvegicus) (UniProt O09028+P15431+P18506+P18508+P19969+P20236+P23574+P23576+P28471+P28473+P30191+P62813+P63079+P63138+Q91ZM7+Q9ES14); assay: BZD/CENTR/R Eurofins SafetyScreen44 (BI); type: protein-complex assay; settings: Compound concentration 10.0 uM
[5] = molecular target: Sodium-dependent dopamine transporter (Homo sapiens) (UniProt Q01959); assay: DATRANS/HUM Eurofins SafetyScreen44 (BI); settings: Compound concentration 10.0 uM
[6] = molecular target: Sodium-dependent noradrenaline transporter (Homo sapiens) (UniProt P23975); assay: NEUP/H Eurofins SafetyScreen44 (BI); settings: Compound concentration 10.0 uM
Chain of Sodium-dependent noradrenaline transporter (Homo sapiens) (P23975 whole entry): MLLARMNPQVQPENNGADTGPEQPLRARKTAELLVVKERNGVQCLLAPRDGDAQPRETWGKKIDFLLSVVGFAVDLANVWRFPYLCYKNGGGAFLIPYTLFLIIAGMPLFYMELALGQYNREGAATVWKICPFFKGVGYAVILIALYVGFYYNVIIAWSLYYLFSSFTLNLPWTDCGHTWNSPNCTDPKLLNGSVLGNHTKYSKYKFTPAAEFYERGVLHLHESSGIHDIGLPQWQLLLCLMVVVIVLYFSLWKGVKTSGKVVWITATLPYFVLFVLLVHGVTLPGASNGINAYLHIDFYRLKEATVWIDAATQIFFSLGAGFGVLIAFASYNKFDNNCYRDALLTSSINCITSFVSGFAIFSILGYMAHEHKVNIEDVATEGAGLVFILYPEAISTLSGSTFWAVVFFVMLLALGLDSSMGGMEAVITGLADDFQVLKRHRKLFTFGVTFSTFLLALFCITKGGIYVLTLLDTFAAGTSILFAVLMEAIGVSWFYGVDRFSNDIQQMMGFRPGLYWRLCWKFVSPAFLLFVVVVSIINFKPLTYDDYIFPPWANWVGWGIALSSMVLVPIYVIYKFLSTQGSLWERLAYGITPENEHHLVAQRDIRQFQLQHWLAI

[7] = molecular target: Prostaglandin G/H synthase 2 (Homo sapiens) (UniProt P35354); assay: COX-2 Eurofins SafetyScreen44 (BI); settings: Compound concentration 10.0 uM
[8] = molecular target: Endothelin-1 receptor (Homo sapiens) (UniProt P25101); assay: ETA/H Eurofins SafetyScreen44 (BI); settings: Compound concentration 10.0 uM
[9] = molecular target: voltage-gated Na+ channel (site 2) (Rattus norvegicus, UniProt F1LQQ7+O08562+O88420+O88457+P04774+P04775+P08104+P15389+P15390+Q62968); assay: NA+/SITE2/R Eurofins SafetyScreen44 (BI); type: protein assay; settings: rat brain, probe [3H]batrachotoxinin, compound concentration 10 uM, read-out: % Ctrl
[10] = molecular target: Histamine H2 receptor (Homo sapiens) (UniProt P25021); assay: H2/APT/HS Eurofins SafetyScreen44 (BI); settings: filed as antagonist, Compound concentration 10.0 uM
Chain of Histamine H2 receptor (Homo sapiens) (P25021 whole entry): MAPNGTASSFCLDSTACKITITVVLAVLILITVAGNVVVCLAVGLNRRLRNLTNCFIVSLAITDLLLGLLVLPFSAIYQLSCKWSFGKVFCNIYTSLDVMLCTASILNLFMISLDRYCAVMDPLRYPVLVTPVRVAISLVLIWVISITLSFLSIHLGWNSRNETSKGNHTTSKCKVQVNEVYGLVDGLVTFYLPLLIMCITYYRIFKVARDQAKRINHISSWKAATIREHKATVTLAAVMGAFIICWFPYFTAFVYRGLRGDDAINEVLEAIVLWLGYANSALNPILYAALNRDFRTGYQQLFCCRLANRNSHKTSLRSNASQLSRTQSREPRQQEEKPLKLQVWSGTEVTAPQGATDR

[11] = molecular target: Sodium-dependent serotonin transporter (Homo sapiens) (UniProt P31645); assay: SLC6A4/H Eurofins SafetyScreen44 (BI); settings: filed as antagonist, Compound concentration 10.0 uM
Chain of Sodium-dependent serotonin transporter (Homo sapiens) (P31645 whole entry, looked up): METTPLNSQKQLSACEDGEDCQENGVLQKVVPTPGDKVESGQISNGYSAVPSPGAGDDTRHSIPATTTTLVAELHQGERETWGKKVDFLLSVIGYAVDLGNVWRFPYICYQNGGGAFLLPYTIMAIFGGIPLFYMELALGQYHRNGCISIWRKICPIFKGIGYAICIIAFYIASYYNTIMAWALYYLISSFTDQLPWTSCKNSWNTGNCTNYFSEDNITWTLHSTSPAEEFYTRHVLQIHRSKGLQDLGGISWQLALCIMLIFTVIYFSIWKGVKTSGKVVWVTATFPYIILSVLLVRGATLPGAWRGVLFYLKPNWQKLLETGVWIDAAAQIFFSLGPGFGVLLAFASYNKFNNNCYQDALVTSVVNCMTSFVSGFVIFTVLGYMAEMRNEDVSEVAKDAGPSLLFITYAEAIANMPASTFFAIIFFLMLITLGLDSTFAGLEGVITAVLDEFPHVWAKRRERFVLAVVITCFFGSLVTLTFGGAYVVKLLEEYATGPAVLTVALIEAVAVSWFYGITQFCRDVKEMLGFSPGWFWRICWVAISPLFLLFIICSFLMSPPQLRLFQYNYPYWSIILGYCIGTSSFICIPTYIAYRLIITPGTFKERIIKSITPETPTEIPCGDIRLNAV

[12] = molecular target: Tyrosine-protein kinase Lck (Homo sapiens) (UniProt P06239); assay: LCK_CE Eurofins SafetyScreen44 (BI); settings: Compound concentration 10.0 uM
Chain of Tyrosine-protein kinase Lck (Homo sapiens) (P06239 2-509 limits assumed): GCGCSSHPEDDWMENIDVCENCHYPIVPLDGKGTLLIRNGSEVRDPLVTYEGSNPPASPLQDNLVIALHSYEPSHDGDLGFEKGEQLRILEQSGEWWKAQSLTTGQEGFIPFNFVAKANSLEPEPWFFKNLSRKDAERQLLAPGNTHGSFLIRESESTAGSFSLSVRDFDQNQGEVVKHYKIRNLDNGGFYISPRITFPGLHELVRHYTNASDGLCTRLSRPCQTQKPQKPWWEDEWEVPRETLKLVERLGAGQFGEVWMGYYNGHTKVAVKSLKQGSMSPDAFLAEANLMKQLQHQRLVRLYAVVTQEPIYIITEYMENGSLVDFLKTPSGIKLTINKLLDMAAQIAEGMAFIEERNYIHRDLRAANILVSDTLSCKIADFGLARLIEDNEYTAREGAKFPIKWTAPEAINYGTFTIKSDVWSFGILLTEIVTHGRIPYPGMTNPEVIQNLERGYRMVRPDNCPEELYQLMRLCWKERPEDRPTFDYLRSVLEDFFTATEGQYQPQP

[13] = test system: Voltage-gated K+ channel Kv1 (Rattus norvegicus); assay: K+/VOLT/RA Eurofins SafetyScreen44 (BI); settings: rat brain, probe [125I]a-dendrotoxin, read-out: % Ctrl
[14] = molecular target: Neuronal acetylcholine receptor; alpha4/beta2 (Homo sapiens) (UniProt P17787+P43681); assay: N_NEURO_A4B2 Eurofins SafetyScreen44 (BI); type: protein-complex assay; settings: filed as agonist, Compound concentration 10.0 uM
[15] = molecular target: T2, 5-hydroxytryptamine receptor 3A (Homo sapiens) (UniProt P46098); assay: 5HT3/H Eurofins SafetyScreen44 (BI); settings: Compound concentration 10.0 uM
T2 sequence (whole entry): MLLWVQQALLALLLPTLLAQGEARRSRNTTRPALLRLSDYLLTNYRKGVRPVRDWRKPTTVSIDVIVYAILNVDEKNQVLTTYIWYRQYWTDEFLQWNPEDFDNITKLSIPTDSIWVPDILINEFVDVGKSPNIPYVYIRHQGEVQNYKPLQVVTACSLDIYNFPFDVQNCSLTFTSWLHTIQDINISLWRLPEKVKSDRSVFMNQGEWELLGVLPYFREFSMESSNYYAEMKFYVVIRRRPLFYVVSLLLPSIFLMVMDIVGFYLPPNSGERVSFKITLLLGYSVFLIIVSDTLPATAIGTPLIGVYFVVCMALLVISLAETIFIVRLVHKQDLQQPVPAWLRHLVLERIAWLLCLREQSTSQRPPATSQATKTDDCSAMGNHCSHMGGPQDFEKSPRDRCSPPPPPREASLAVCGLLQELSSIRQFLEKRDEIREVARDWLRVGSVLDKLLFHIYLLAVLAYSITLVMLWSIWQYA

[16] = molecular target: cGMP-inhibited 3',5'-cyclic phosphodiesterase 3A (Homo sapiens) (UniProt Q14432); assay: PDE3A Eurofins SafetyScreen44 (BI); settings: Compound concentration 10.0 uM
Chain of cGMP-inhibited 3',5'-cyclic phosphodiesterase 3A (Homo sapiens) (Q14432 whole entry): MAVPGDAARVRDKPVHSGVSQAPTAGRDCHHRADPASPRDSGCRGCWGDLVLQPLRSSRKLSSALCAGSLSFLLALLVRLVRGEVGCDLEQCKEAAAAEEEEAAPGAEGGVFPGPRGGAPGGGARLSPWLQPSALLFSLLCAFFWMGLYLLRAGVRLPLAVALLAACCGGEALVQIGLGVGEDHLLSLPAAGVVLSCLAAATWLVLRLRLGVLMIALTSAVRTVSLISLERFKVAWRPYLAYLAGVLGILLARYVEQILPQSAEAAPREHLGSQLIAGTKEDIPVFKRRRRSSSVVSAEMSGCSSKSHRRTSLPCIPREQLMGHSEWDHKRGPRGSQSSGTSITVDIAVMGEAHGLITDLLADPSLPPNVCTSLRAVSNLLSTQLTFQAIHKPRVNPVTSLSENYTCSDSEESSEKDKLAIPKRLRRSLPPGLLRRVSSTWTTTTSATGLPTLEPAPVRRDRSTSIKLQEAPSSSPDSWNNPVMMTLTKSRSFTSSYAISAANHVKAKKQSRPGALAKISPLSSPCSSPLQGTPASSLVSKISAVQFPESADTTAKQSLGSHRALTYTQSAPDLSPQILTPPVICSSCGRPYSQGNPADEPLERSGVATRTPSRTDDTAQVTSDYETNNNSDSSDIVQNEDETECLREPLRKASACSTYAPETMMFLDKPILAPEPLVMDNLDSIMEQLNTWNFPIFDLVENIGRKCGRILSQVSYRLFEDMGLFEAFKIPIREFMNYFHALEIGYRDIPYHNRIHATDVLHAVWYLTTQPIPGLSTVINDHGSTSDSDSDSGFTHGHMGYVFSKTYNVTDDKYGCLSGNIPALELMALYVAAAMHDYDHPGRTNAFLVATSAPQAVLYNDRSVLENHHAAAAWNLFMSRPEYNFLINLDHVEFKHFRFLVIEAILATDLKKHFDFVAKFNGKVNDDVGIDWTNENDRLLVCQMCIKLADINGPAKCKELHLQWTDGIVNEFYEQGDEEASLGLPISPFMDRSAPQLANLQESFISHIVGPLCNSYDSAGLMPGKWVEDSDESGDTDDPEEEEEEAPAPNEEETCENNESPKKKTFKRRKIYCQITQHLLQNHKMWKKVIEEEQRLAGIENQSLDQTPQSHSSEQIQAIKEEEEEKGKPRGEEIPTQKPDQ

[17] = molecular target: 5-hydroxytryptamine receptor 2B (Homo sapiens) (UniProt P41595); assay: 5HT2B/H AG Eurofins SafetyScreen44 (BI); settings: filed as agonist, Compound concentration 10.0 uM
[18] = molecular target: BDNF/NT-3 growth factors receptor (Homo sapiens) (UniProt Q16620); assay: NTRK2 Invitrogen Lab (UK) kinase screen (BI); settings: Compound concentration 1.0 uM
[19] = molecular target: Alpha-2B adrenergic receptor (Homo sapiens) (UniProt P18089); settings: Compound concentration 10.0 uM
Chain of Alpha-2B adrenergic receptor (Homo sapiens) (P18089 whole entry): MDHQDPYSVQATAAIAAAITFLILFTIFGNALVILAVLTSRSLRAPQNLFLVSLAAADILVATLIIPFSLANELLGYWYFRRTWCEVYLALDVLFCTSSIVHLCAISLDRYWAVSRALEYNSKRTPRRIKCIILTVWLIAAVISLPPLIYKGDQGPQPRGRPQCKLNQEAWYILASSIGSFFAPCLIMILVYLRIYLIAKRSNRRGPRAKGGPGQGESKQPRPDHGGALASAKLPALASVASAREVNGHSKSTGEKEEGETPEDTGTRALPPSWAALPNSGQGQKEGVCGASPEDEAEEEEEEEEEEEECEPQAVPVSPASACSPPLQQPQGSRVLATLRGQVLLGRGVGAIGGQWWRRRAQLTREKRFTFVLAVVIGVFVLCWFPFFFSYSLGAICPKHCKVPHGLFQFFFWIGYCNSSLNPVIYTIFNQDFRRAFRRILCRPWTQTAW

[20] = molecular target: T1, GABA-A receptor; anion channel (Rattus norvegicus); settings: Compound concentration 10.0 uM
[21] = molecular target: Serine/threonine-protein kinase PAK 4 (Homo sapiens) (UniProt O96013); assay: PAK4 Invitrogen Lab (UK) kinase screen (BI); settings: Compound concentration 1.0 uM
[22] = molecular target: Interleukin-1 receptor-associated kinase 4 (Homo sapiens) (UniProt Q9NWZ3); assay: IRAK4 Invitrogen Lab (UK) kinase screen (BI); settings: Compound concentration 1.0 uM
[23] = molecular target: 5-hydroxytryptamine receptor 1B (Rattus norvegicus) (UniProt P28564); assay: 5HT1B/R Eurofins SafetyScreen44 (BI); settings: Compound concentration 10.0 uM
[24] = molecular target: Histamine H4 receptor (Homo sapiens) (UniProt Q9H3N8); settings: Compound concentration 10.0 uM
Chain of Histamine H4 receptor (Homo sapiens) (Q9H3N8 whole entry): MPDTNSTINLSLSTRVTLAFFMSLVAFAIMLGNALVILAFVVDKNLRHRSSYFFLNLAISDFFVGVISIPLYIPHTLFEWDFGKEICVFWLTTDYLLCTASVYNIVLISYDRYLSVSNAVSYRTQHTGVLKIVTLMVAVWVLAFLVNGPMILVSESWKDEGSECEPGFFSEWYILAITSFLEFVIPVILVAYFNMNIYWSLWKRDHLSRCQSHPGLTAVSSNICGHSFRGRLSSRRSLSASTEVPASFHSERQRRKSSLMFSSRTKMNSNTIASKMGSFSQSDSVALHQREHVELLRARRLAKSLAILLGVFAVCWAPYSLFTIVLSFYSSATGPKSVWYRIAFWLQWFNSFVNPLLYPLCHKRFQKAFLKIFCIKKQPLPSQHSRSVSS

[25] = molecular target: Serine/threonine-protein kinase 3 (Homo sapiens) (UniProt Q13188); assay: STK3 Invitrogen Lab (UK) kinase screen (BI); settings: Compound concentration 1.0 uM
[26] = molecular target: RAF proto-oncogene serine/threonine-protein kinase (Homo sapiens) (UniProt P04049); assay: RAF1 Invitrogen Lab (UK) kinase screen (BI); settings: Compound concentration 1.0 uM
[27] = molecular target: Platelet-derived growth factor receptor alpha (Homo sapiens) (UniProt P16234); assay: PDGFRA Invitrogen Lab (UK) kinase screen (BI); settings: Compound concentration 1.0 uM
[28] = molecular target: Ephrin type-A receptor 2 (Homo sapiens) (UniProt P29317); assay: EPHA2 Invitrogen Lab (UK) kinase screen (BI); settings: Compound concentration 1.0 uM
[29] = molecular target: Insulin receptor (Homo sapiens) (UniProt P06213); assay: INSR Invitrogen Lab (UK) kinase screen (BI); settings: Compound concentration 1.0 uM
[30] = molecular target: Tyrosine-protein kinase ITK/TSK (Homo sapiens) (UniProt Q08881); assay: ITK Invitrogen Lab (UK) kinase screen (BI); settings: Compound concentration 1.0 uM
[31] = molecular target: Histamine H2 receptor (Homo sapiens) (UniProt P25021); settings: Compound concentration 10.0 uM
[32] = molecular target: Mitogen-activated protein kinase 8 (Homo sapiens) (UniProt P45983); assay: MAPK8 Invitrogen Lab (UK) kinase screen (BI); settings: Compound concentration 1.0 uM
[33] = molecular target: Serine/threonine-protein kinase TBK1 (Homo sapiens) (UniProt Q9UHD2); assay: TBK1 Invitrogen Lab (UK) kinase screen (BI); settings: Compound concentration 1.0 uM

Chain of D(1A) dopamine receptor (Homo sapiens) (P21728 whole entry): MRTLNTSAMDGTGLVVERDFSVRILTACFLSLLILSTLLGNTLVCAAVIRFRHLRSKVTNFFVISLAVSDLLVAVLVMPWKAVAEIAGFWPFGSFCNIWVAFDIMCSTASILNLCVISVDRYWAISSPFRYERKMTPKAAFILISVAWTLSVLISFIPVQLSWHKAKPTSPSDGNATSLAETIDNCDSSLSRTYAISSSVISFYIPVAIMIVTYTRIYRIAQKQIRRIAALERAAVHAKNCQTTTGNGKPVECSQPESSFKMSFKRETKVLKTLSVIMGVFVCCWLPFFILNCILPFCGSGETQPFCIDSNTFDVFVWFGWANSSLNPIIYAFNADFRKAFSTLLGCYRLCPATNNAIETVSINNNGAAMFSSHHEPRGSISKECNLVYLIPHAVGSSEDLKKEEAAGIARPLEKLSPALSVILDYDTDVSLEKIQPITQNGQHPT

Row | SMILES | residual activity [1] | residual activity [2] | activity at 10 µM [3] | residual activity [4] | residual activity [5] | residual activity [6] | residual activity [7] | residual activity [8] | activity at 10 µM [9] | residual activity [10] | residual activity [11] | residual activity [12] | residual activity [14] | residual activity [15] | residual activity [16] | residual activity [17] | also measured
1 | C[C@@H]1C[C@H](C)CN(c2ncc(Cl)c(Nc3ccc4c(c3)cc(OC(C)(C)C(=O)O)c(=O)n4C)n2)C1 | 92% | 99% | 95% (not active) | 147% | 100% | 102% | 75% | 111% | 88% (not active) | 121% | 91% | 87% | 106% | 95% | 99% | 159% | activity at 10 µM [13]: 97% (not active)
2 | CNC(=O)COc1cc2cc(Nc3nc(N4C[C@H](C)C[C@H](C)C4)ncc3Cl)ccc2n(C)c1=O | 106% | 110% | 76% (not active) | 97% | 88% | 99% | 88% | 100% | 114% (not active) | 110% | 104% | 114% | 107% | 101% | 95% | 12% | residual activity [18]: 99%; inhibition [19]: 7.35%; inhibition [20]: 20.9%; residual activity [21]: 94%; residual activity [22]: 90%; residual activity [23]: 115%; inhibition [24]: -0.56%; residual activity [25]: 101%; residual activity [26]: 94%; residual activity [27]: 102%; residual activity [28]: 97%; residual activity [29]: 100%; residual activity [30]: 100%; inhibition [31]: 13.9%; residual activity [32]: 120%; residual activity [33]: 120%
